Where two headings read alike, the source gives them in different places.
Experiments:
Type in all cases: cell-based
Conditions in all cases: Homo sapiens, 5 hours at 37° C., 1% DMSO
Aβ-42 = Aβ-42 level in conditioned media of 2B7 cells (MSD 3-PLEX ELISA)
Experimental: (§1) Assays were conducted to determine the ability of a Compound of Formula I to modulate […], and Aβ-38.
(§2) Human (6E10) Ab 3-PLEX ELISA kits were purchased from Meso Scale Discovery Labs, 9328 Gaither Road, Gaithersburg, Md. 20877 (Catalog Number K15148E-3). Plates with capture antibodies were blocked for 1-2 hours at room temperature with 150 μL of the manufactures blocking reagent.
(§3) Cultured 2B7 cells in 96 well plate with 250 μL of media per well until confluent;
(§4) Prepared serial dilutions of compounds in DMSO at 100× the final desired concentration;
(§5) Washed wells with 2B7 cells 1× with 250 μL of media;
(§6) Diluted DMSO stocks 1:100 into media:
(§7) Added 250 μL of media containing compounds (1% DMSO) to wells with 2B7 cells for 5 hours at 37° C.
(§8) Diluted conditioned media: 1 part media with 1% DMSO and 1 part blocking buffer;
(§9) 150 μL of the 250 μL of conditioned media were used.
(§10) Seven point standard curve samples were prepared that contained Aβ-42, Aβ-40, and Aβ-38. The highest concentration of Aβ-42 and Aβ-38 was […] and the highest concentration of Aβ-40 was 10,000 pg/mL. Subsequent serial dilutions were 1:3 and the final composition of each sample was 1 part blocking buffer and 1 part cell medium containing 1% DMSO.
(§11) Blocked plates are washed 5× with MSD wash buffer with a plate washer;
(§12) 25 μL of detection antibody and blocker G reagent in MSD blocking solution was added;
(§13) 25 μL of samples (1 part conditioned media containing 1% DMSO and 1 part MSD blocking buffer) were then added;
(§14) Plates were incubated overnight at 4 degrees C. or 2 hours at room temperature.
(§15) Washed wells 5× with MSD wash buffer;
(§16) Added 150 μL 2×MSD read buffer;
(§17) Aβ peptide levels for each peptide were calculated from the standard curve using the MSD software provided with the MSD 2400 Imager. Percent vehicle values for each compound dosage were then calculated and fit to a 4 parameter curve generating IC50 values.

Aβ-38 = Aβ-38 level in conditioned media of 2B7 cells (MSD 3-PLEX ELISA)
Experimental: as §1, §2, §3, §4, §5, §6, §7, §8, §9, §10, §11, §12, §13, §14, §15, §16, §17

Aβ-40 = Aβ-40 level in conditioned media of 2B7 cells (MSD 3-PLEX ELISA)
Experimental: as §1, §2, §3, §4, §5, §6, §7, §8, §9, §10, §11, §12, §13, §14, §15, §16, §17

[1] = inflection of dose-response curve, read-out: Aβ 42 DR IC50 Inflection
[2] = inflection of dose-response curve, read-out: Aβ 40 DR IC50 Inflection
[3] = inflection of dose-response curve, read-out: Aβ 38 DR IC50 Inflection

Row | Compound | IC50 (Aβ-42; [1]) [nM] | IC50 (Aβ-42; read-out: Aβ 42 IC50) [nM] | IC50 (Aβ-38; read-out: Aβ 38 IC50) [nM] | IC50 (Aβ-40; [2]) [nM] | IC50 (Aβ-40; read-out: Aβ 40 IC50) [nM] | IC50 (Aβ-38; [3]) [nM]
1 | CC(C)[C@@H](OC(=O)N1CCC1)[C@H]1C[C@@H](C)[C@H]2[C@H](O1)[C@H](O)[C@@]1(C)[C@@H]3CC[C@H]4C(C)(C)[C@@H](OC(=O)N5CC[C@H](C(=O)O)C5)CC[C@@]45C[C@@]35CC[C@]21C [Compound I-1] | 1000 to 5000 | 1000 to 5000 | 1000 to 5000 | > 5000 | > 5000 | –
2 | CC(C)[C@@H](OC(=O)N1CCC1)[C@H]1C[C@@H](C)[C@H]2[C@H](O1)[C@H](O)[C@@]1(C)[C@@H]3CC[C@H]4C(C)(C)[C@@H](OC(=O)N[C@H]5CCNC5=O)CC[C@@]45C[C@@]35CC[C@]21C [Compound I-2] | – | 100 to 500 | 501 to 1000 | – | > 5000 | –
3 | CC(C)[C@@H](OC(=O)N1CCC1)[C@H]1C[C@@H](C)[C@H]2[C@H](O1)[C@H](O)[C@@]1(C)[C@@H]3CC[C@H]4C(C)(C)[C@@H](OC(=O)N[C@@H]5CCCNC5=O)CC[C@@]45C[C@@]35CC[C@]21C [Compound I-3] | 100 to 500 | 100 to 500 | 501 to 1000 | > 5000 | > 5000 | 1000 to 5000
4 | CC(C)[C@@H](OC(=O)N1CCC1)[C@H]1C[C@@H](C)[C@H]2[C@H](O1)[C@H](O)[C@@]1(C)[C@@H]3CC[C@H]4C(C)(C)[C@@H](OC(=O)N[C@@H](C)C(=O)O)CC[C@@]45C[C@@]35CC[C@]21C [Compound I-4] | – | 501 to 1000 | 1000 to 5000 | – | > 5000 | 501 to 1000
5 | CC(C)[C@@H](OC(=O)N1CCC1)[C@H]1C[C@@H](C)[C@H]2[C@H](O1)[C@H](O)[C@@]1(C)[C@@H]3CC[C@H]4C(C)(C)[C@@H](OC(=O)N[C@@H]5CCNC5=O)CC[C@@]45C[C@@]35CC[C@]21C [Compound I-5] | – | 100 to 500 | 100 to 500 | > 5000 | > 5000 | 100 to 500
6 | CC(C)[C@@H](OC(=O)N1CCC1)[C@H]1C[C@@H](C)[C@H]2[C@H](O1)[C@H](O)[C@@]1(C)[C@@H]3CC[C@H]4C(C)(C)[C@@H](OC(=O)N[C@H]5CCCNC5=O)CC[C@@]45C[C@@]35CC[C@]21C [Compound I-6] | – | 100 to 500 | 100 to 500 | > 5000 | > 5000 | 100 to 500
7 | CC(C)[C@@H](OC(=O)N1CCC1)[C@H]1C[C@@H](C)[C@H]2[C@H](O1)[C@H](O)[C@@]1(C)[C@@H]3CC[C@H]4C(C)(C)[C@@H](OC(=O)NCCC(=O)O)CC[C@@]45C[C@@]35CC[C@]21C [Compound I-8] | 501 to 1000 | 501 to 1000 | 501 to 1000 | – | > 5000 | 501 to 1000
8 | CC(C)[C@@H](OC(=O)N1CCC1)[C@H]1C[C@@H](C)[C@H]2[C@H](O1)[C@H](O)[C@@]1(C)[C@@H]3CC[C@H]4C(C)(C)[C@@H](OC(=O)N5CC(CNS(=O)(=O)C(F)(F)F)C5)CC[C@@]45C[C@@]35CC[C@]21C [Compound I-9] | – | 1000 to 5000 | 1000 to 5000 | – | – | –
9 | CC(C)[C@@H](OC(=O)N1CCC1)[C@H]1C[C@@H](C)[C@H]2[C@H](O1)[C@H](O)[C@@]1(C)[C@@H]3CC[C@H]4C(C)(C)[C@@H](OC(=O)N5CC[C@@H](C(=O)O)C5)CC[C@@]45C[C@@]35CC[C@]21C [Compound I-10] | – | 1000 to 5000 | 1000 to 5000 | – | > 5000 | –
10 | CC(C)[C@@H](OC(=O)N1CCC1)[C@H]1C[C@@H](C)[C@H]2[C@H](O1)[C@H](O)[C@@]1(C)[C@@H]3CC[C@H]4C(C)(C)[C@@H](OC(=O)N(C)C5CN(C)C5)CC[C@@]45C[C@@]35CC[C@]21C [Compound I-11] | < 100 | < 100 | 100 to 500 | > 5000 | > 5000 | 100 to 500
11 | COCCN1CCN(C(=O)O[C@H]2CC[C@]34C[C@]35CC[C@]3(C)[C@@H]6[C@H](O[C@@H]([C@H](OC(=O)N7CCC7)C(C)C)C[C@H]6C)[C@H](O)[C@@]3(C)[C@@H]5CC[C@H]4C2(C)C)CC1 [Compound I-12] | – | 501 to 1000 | 1000 to 5000 | – | > 5000 | –
12 | CC(C)[C@@H](OC(=O)N1CCC1)[C@H]1C[C@@H](C)[C@H]2[C@H](O1)[C@H](O)[C@@]1(C)[C@@H]3CC[C@H]4C(C)(C)[C@@H](OC(=O)N5CCNC(C(F)(F)F)C5)CC[C@@]45C[C@@]35CC[C@]21C (stereo partly drawn) [Compound I-13] | – | 1000 to 5000 | 1000 to 5000 | – | – | –
13 | CC(C)[C@@H](OC(=O)N1CCC1)[C@H]1C[C@@H](C)[C@H]2[C@H](O1)[C@H](O)[C@@]1(C)[C@@H]3CC[C@H]4C(C)(C)[C@@H](OC(=O)N5CCN(C6COC6)CC5)CC[C@@]45C[C@@]35CC[C@]21C [Compound I-14] | – | 501 to 1000 | 501 to 1000 | – | – | –
14 | CC(C)[C@@H](OC(=O)N1CCC1)[C@H]1C[C@@H](C)[C@H]2[C@H](O1)[C@H](O)[C@@]1(C)[C@@H]3CC[C@H]4C(C)(C)[C@@H](OC(=O)N(C)CC(=O)O)CC[C@@]45C[C@@]35CC[C@]21C [Compound I-15] | – | 100 to 500 | 501 to 1000 | – | > 5000 | –

Reference: US20130060022A1, “Compounds useful for treating neurodegenerative disorders” (priority 2011, published 2013)
